Patent US7135467B2, “HIV integrase inhibitors” (priority 2003, dated 2006)

What was measured:
[1] = target: T1, HIV-integrase (recombinant integrase) (Human immunodeficiency virus type 1 group M subtype B, UniProt P12497); experiment: HIV-Integrase Inhibition Activity (SPA bead strand-transfer assay); assay type: biochemical; settings: recombinant integrase on biotin labeled substrate DNA/SPA beads, P33 labeled target DNA; read-out: Activity (IC50 against HIV-integrase)
T1 construct: Recombinant integrase (0.26 ng) was incubated with the beads
Procedure, shortened: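 Recombinant integrase (0.26 ng) was bound for 90 min at 37° C to biotin-labelled substrate DNA (5 pmole) on streptavidin SPA beads. After washing, inhibitors and 0.1 fmol P33-labelled target DNA were added, and the reaction was stopped with 10 mM EDTA. Integration was measured as CPM.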

| SMILES | melting point | IC50 [1] [nM] |
| --- | --- | --- |
| Cn1c(N2CCCCS2(=O)=O)nc(C(=O)Nc2ccc(F)cc2)c(O)c1=O [Compound 50, 2-(1,1-Dioxo-1λ^6-[1,2]thiazinan-2-yl)-5-hydroxy-1-methyl-6-oxo-1,6-dihydro-pyrimidine-4-carboxylic acid (4-fluoro-phenyl)-amide] | 285 to 291 °C (dec.) | ≥ 1000 |
| Cn1c(N2CCOCC2)nc(C(=O)NCc2ccc(F)cc2)c(O)c1=O [Compound 52, N-[(4-fluorophenyl)methyl]-1,6-dihydro-5-hydroxy-1-methyl-2-(4-morpholinyl)-6-oxo-4-pyrimidinecarboxamide] | 197 to 199 °C | 3 to 100 |
| Cn1c(N2CCOCC2)nc(C(=O)NCc2ccc(Cl)c(Cl)c2)c(O)c1=O [Compound 53, N-[(3,4-dichlorophenyl)methyl]-1,6-dihydro-5-hydroxy-1-methyl-2-(4-morpholinyl)-6-oxo-4-pyrimidinecarboxamide] | 100 to 102 °C | 3 to 100 |
| Cc1cc(CNC(=O)c2nc(N3CCOCC3)n(C)c(=O)c2O)ccc1F [Compound 54, N-[(4-fluoro-3-methylphenyl)methyl]-1,6-dihydro-5-hydroxy-1-methyl-2-(4-morpholinyl)-6-oxo-4-pyrimidinecarboxamide] | 182 to 185 °C | 3 to 100 |
| Cc1ccc(CNC(=O)c2nc(N3CCOCC3)n(C)c(=O)c2O)cc1F [Compound 55, N-[(3-fluoro-4-methylphenyl)methyl]-1,6-dihydro-5-hydroxy-1-methyl-2-(4-morpholinyl)-6-oxo-4-pyrimidinecarboxamide] | 166 to 167 °C | 3 to 100 |
| Cn1c(N2CCOCC2)nc(C(=O)NCc2ccc(F)c(Cl)c2)c(O)c1=O [Compound 56, N-[(3-chloro-4-fluorophenyl)methyl]-1,6-dihydro-5-hydroxy-1-methyl-2-(4-morpholinyl)-6-oxo-4-pyrimidinecarboxamide] | 170 to 171 °C | 3 to 100 |
| Cc1ccc(CNC(=O)c2nc(N3CCOCC3)n(C)c(=O)c2O)cc1C [Compound 57, N-[(3,4-dimethylphenyl)methyl]-1,6-dihydro-5-hydroxy-1-methyl-2-(4-morpholinyl)-6-oxo-4-pyrimidinecarboxamide] | 164 to 166 °C | 3 to 100 |
| Cc1ncn(-c2nc(C(=O)NCc3ccc(Cl)c(Cl)c3)c(O)c(=O)n2C)n1 [Compound 59, N-[(3,4-dichlorophenyl)methyl]-1,6-dihydro-5-hydroxy-1-methyl-2-(3-methyl-1H-1,2,4-triazol-1-yl)-6-oxo-4-pyrimidinecarboxamide] | 188 to 189 °C (dec.) | 3 to 100 |
| Cc1ncn(-c2nc(C(=O)NCc3ccc(F)c(C)c3)c(O)c(=O)n2C)n1 [Compound 60, N-[(4-fluoro-3-methylphenyl)methyl]-1,6-dihydro-5-hydroxy-1-methyl-2-(3-methyl-1H-1,2,4-triazol-1-yl)-6-oxo-4-pyrimidinecarboxamide] | 204 to 205 °C | 3 to 100 |
| Cc1ncnn1-c1nc(C(=O)NCc2ccc(F)cc2)c(O)c(=O)n1C [Compound 61, N-[(4-fluorophenyl)methyl]-1,6-dihydro-5-hydroxy-1-methyl-2-(5-methyl-1H-1,2,4-triazol-1-yl)-6-oxo-4-pyrimidinecarboxamide] | 230 °C | 100 to 1000 |
| Cn1c(N2CCCCC2CCO)nc(C(=O)NCc2ccc(F)cc2)c(O)c1=O (stereo not shown) [Compound 98, N-[(4-fluorophenyl)methyl]-1,6-dihydro-5-hydroxy-2-[2-(2-hydroxyethyl)-1-piperidinyl]-1-methyl-6-oxo-4-pyrimidinecarboxamide] | – | 3 to 100 |
| Cc1cc(CNC(=O)c2nc(N3CCCCC3CCO)n(C)c(=O)c2O)ccc1F (stereo not shown) [Compound 99, N-[(4-fluoro-3-methylphenyl)methyl]-1,6-dihydro-5-hydroxy-2-[2-(2-hydroxyethyl)-1-piperidinyl]-1-methyl-6-oxo-4-pyrimidinecarboxamide] | – | 3 to 100 |
| Cn1c(-n2ncccc2=O)nc(C(=O)NCc2ccc(F)cc2)c(O)c1=O [Compound 100, N-[(4-fluorophenyl)methyl]-1,6-dihydro-5-hydroxy-1-methyl-6-oxo-2-(6-oxo-1(6H)-pyridazinyl)-4-pyrimidinecarboxamide] | – | 100 to 1000 |
| Cc1cc(CNC(=O)c2nc(-n3ncccc3=O)n(C)c(=O)c2O)ccc1F [Compound 101, N-[(4-fluoro-3-methylphenyl)methyl]-1,6-dihydro-5-hydroxy-1-methyl-6-oxo-2-(6-oxo-1(6H)-pyridazinyl)-4-pyrimidinecarboxamide] | – | 3 to 100 |
| Cn1c(N2Cc3ccc(F)cc3C2=O)nc(C(=O)NCc2ccc(F)cc2)c(O)c1=O [Compound 102, 2-(6-fluoro-1,3-dihydro-1-oxo-2H-isoindol-2-yl)-N-[(4-fluorophenyl)methyl]-1,6-dihydro-5-hydroxy-1-methyl-6-oxo-4-pyrimidinecarboxamide] | – | 3 to 100 |
